# Measurements taken from patent US11566007B2, “Ras inhibitors” (Revolution Medicines, Inc., priority 2019, dated 2023).
# Where “and” joins values, the source holds several entries; their conditions need not be identical. Equal entries are not always repeated.
# How the values were obtained:
# K-Ras G12C = K-Ras G12C (Homo sapiens (Human), UniProt P01116+P62937, G12C); assay: Ras-Raf (BRAF RBD) disruption / FRET / MOA assay, KRAS G12C; type: biochemical; settings: KRAS G12C; Ras-Raf disruption/FRET/MOA assay; read-out: IC50* KRAS G12C FRET data
# Chain of K-Ras G12C (P01116-2 other isoform, or with tags, fused parts or gaps G12C): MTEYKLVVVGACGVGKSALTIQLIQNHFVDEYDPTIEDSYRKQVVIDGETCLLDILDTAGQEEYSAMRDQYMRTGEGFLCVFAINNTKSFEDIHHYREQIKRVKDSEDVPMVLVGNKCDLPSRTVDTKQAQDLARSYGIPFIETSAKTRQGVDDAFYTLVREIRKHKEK
# Chain of K-Ras G12C (P62937 whole entry): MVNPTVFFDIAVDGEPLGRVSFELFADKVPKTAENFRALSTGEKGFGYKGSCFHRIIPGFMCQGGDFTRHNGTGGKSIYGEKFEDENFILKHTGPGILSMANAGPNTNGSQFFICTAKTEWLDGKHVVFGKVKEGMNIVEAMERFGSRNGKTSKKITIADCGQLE
# How it was run: (§1)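 Compounds, top final concentration 30 μM in 10-point 3-fold series, incubated 3 hours at 25° C with nucleotide-loaded Ras, cyclophilin A and BRAF RBD.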
# [1] = tested on: NCI-H358 cells (K-Ras G12C); assay: Potency assay: pERK in NCI-H358 cells; type: cell-based, human; settings: Homo sapiens, NCI-H358; H358 KRAS G12C; read-out: pERK EC50
# How it was run: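 pERK decrease read by AlphaLISA SureFire p-ERK1/2 or In-Cell Western after 4 h compound exposure at 37 °C, 5% CO2.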
# KRAS G12D = KRAS G12D (Homo sapiens (Human), UniProt P01116+P62937, G12D); assay: Ras-Raf (BRAF RBD) disruption / FRET / MOA assay, KRAS G12D; type: biochemical; settings: Ras-Raf disruption/FRET/MOA assay; class symbols; read-out: KRAS G12D FRET data IC50
# Chain of KRAS G12D (P01116-2 other isoform, or with tags, fused parts or gaps G12D): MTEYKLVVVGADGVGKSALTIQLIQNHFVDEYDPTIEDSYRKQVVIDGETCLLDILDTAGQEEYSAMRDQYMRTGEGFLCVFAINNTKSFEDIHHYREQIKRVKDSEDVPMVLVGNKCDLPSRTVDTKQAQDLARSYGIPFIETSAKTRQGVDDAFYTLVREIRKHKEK
# Chain of KRAS G12D (P62937 whole entry): as the sequence (P62937 whole entry) above
# How it was run: as §1
# KRAS WT = KRAS WT (Homo sapiens (Human), UniProt P01116+P62937); assay: Ras-Raf (BRAF RBD) disruption / FRET / MOA assay, KRAS WT; type: biochemical; settings: read-out: IC50* KRAS WT FRET data
# Chain of KRAS WT (P01116-2 other isoform, or with tags, fused parts or gaps): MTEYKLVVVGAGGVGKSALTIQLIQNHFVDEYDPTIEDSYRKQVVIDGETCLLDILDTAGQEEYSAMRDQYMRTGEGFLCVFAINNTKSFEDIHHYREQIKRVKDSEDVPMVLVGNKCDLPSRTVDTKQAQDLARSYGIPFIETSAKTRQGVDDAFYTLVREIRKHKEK
# Chain of KRAS WT (P62937 whole entry): as the sequence (P62937 whole entry) above
# How it was run: as §1
# NCI-H358 (K-Ras G12C) = assay: CellTiter-Glo cell viability assay, NCI-H358; type: cell-based, human; settings: Homo sapiens, NCI-H358, 120 h, NCI-H358, 5-day treatment; class symbols; read-out: Additional H358 Cell Viability assay data (K-Ras G12C, IC50)
# How it was run: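 Compounds dispensed directly onto seeded K-Ras mutant cells; plates read on day 5 after ~30 min equilibration to room temperature, by CellTiter-Glo luminescence. Signal normalized as (sample/mean DMSO)×100, then fitted to a four-parameter logistic curve.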
# KRAS G12S = KRAS G12S (Homo sapiens (Human), UniProt P01116+P62937, G12S); assay: Ras-Raf (BRAF RBD) disruption / FRET / MOA assay, KRAS G12S; type: biochemical; settings: Ras-Raf disruption/FRET/MOA assay; class symbols; read-out: KRAS G12S FRET data IC50
# Chain of KRAS G12S (P01116-2 other isoform, or with tags, fused parts or gaps G12S): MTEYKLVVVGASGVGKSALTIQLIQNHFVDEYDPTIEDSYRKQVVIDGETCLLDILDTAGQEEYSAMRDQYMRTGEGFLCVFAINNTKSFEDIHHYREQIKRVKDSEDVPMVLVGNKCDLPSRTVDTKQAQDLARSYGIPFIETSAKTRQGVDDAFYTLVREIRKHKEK
# Chain of KRAS G12S (P62937 whole entry): as the sequence (P62937 whole entry) above
# How it was run: as §1
# K-Ras G13C = K-Ras G13C (Homo sapiens (Human), UniProt P01116+P62937, G13C); assay: Ras-Raf (BRAF RBD) disruption / FRET / MOA assay, KRAS G13C; type: biochemical; settings: KRAS G13C; Ras-Raf disruption/FRET/MOA assay; read-out: IC50* KRAS G13C FRET data
# Chain of K-Ras G13C (P01116-2 other isoform, or with tags, fused parts or gaps G13C): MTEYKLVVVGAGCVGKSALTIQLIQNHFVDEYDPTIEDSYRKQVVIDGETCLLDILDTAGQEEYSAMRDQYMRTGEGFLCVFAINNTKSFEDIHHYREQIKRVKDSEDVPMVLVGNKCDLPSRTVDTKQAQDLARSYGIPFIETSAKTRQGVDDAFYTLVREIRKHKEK
# Chain of K-Ras G13C (P62937 whole entry): as the sequence (P62937 whole entry) above
# How it was run: as §1
# KRAS G12V = KRAS G12V (Homo sapiens (Human), UniProt P01116+P62937, G12V); assay: Ras-Raf (BRAF RBD) disruption / FRET / MOA assay, KRAS G12V; type: biochemical; settings: read-out: IC50* KRAS G12V FRET data
# Chain of KRAS G12V (P01116-2 other isoform, or with tags, fused parts or gaps G12V): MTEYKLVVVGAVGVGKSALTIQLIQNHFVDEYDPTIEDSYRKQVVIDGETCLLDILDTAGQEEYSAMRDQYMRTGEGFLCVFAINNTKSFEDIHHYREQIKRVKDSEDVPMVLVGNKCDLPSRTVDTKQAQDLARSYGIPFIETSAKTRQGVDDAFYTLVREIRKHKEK
# Chain of KRAS G12V (P62937 whole entry): as the sequence (P62937 whole entry) above
# How it was run: as §1
# KRAS G13D = KRAS G13D (Homo sapiens (Human), UniProt P01116+P62937, G13D); assay: Ras-Raf (BRAF RBD) disruption / FRET / MOA assay, KRAS G13D; type: biochemical; settings: read-out: IC50* KRAS G13D FRET data
# Chain of KRAS G13D (P01116-2 other isoform, or with tags, fused parts or gaps G13D): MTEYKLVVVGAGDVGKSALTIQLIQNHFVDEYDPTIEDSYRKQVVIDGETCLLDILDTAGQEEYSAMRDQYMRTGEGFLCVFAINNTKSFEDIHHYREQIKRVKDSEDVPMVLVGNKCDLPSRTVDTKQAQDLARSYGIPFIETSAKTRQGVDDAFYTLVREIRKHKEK
# Chain of KRAS G13D (P62937 whole entry): as the sequence (P62937 whole entry) above
# How it was run: as §1
# NRAS G12C = NRAS G12C (Homo sapiens (Human), UniProt P01111+P62937, G12C); assay: Ras-Raf (BRAF RBD) disruption / FRET / MOA assay, NRAS G12C; type: biochemical; settings: read-out: IC50* NRAS G12C FRET data
# Chain of NRAS G12C (P01111 whole entry G12C): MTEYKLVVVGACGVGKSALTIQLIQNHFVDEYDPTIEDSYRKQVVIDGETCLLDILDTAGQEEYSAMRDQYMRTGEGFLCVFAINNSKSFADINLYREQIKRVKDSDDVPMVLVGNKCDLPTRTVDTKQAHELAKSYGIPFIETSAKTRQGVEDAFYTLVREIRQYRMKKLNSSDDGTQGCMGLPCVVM
# Chain of NRAS G12C (P62937 whole entry): as the sequence (P62937 whole entry) above
# How it was run: as §1
Structure (SMILES),IC50 (K-Ras G12C),EC50 [1] [nM],IC50 (KRAS G12D),IC50 (KRAS WT),IC50 (NCI-H358 (K-Ras G12C)) [nM],IC50 (KRAS G12S),IC50 (K-Ras G13C),IC50 (KRAS G12V),IC50 (KRAS G13D),IC50 (NRAS G12C)
"CCn1c(-c2cccnc2[C@H](C)OC)c2c3cc(ccc31)-c1cccc(c1)C[C@H](NC(=O)[C@H](C(C)C)N(C)C(=O)[C@H]1CCN(C(=O)C#CCN(C)C)C1)C(=O)N1CCC[C@H](N1)C(=O)OCC(C)(C)C2 (atropisomer, axis not shown) [Example A121]",10 to 100 nM and < 10 nM,< 5000,1000 to 10000 nM,1000 to 10000 nM and > 10000 nM,10 to 100,1000 to 10000 nM and > 10000 nM,10 to 100 nM and 1000 to 10000 nM,1000 to 10000 nM and > 10000 nM,1000 to 10000 nM,10 to 100 nM and < 10 nM
"C=CS(=O)(=O)N1CC[C@H](C(=O)N(C)[C@H](C(=O)N[C@H]2Cc3cccc(c3)-c3ccc4c(c3)c(c(-c3cccnc3[C@H](C)OC)n4CC)CC(C)(C)COC(=O)[C@@H]3CCCN(N3)C2=O)C(C)C)C1 (atropisomer, axis not shown) [Example A124]",10 to 100 nM and 1000 to 10000 nM,< 5000,> 10000 nM,1000 to 10000 nM and > 10000 nM,10 to 100,1000 to 10000 nM and > 10000 nM,10 to 100 nM and 1000 to 10000 nM,1000 to 10000 nM and > 10000 nM,> 10000 nM,10 to 100 nM and 1000 to 10000 nM
"CCn1c(-c2cccnc2[C@H](C)OC)c2c3cc(ccc31)-c1cc(O)cc(c1)C[C@H](NC(=O)[C@H](C(C)C)N(C)C(=O)[C@H]1CCN(C(=O)C#CCN(C)C)C1)C(=O)N1CCC[C@H](N1)C(=O)OCC(C)(C)C2 (atropisomer, axis not shown) [Example A131]",< 10 nM,< 5000,1000 to 10000 nM and 100 to 1000 nM,100 to 1000 nM and 1000 to 10000 nM,< 10,100 to 1000 nM and 1000 to 10000 nM,10 to 100 nM and < 10 nM,100 to 1000 nM and 1000 to 10000 nM,100 to 1000 nM and 1000 to 10000 nM,< 10 nM
"C=CS(=O)(=O)N1CC[C@H](C(=O)N(C)[C@H](C(=O)N[C@H]2Cc3cc(O)cc(c3)-c3ccc4c(c3)c(c(-c3cccnc3[C@H](C)OC)n4CC)CC(C)(C)COC(=O)[C@@H]3CCCN(N3)C2=O)C(C)C)C1 (atropisomer, axis not shown) [Example A132]",10 to 100 nM and < 10 nM,< 5000,1000 to 10000 nM and > 10000 nM,1000 to 10000 nM and 10 to 100 nM,10 to 100,100 to 1000 nM and 1000 to 10000 nM,10 to 100 nM and < 10 nM,1000 to 10000 nM and 10 to 100 nM,100 to 1000 nM and 1000 to 10000 nM,10 to 100 nM and < 10 nM
"CCn1c(-c2cccnc2COC)c2c3cc(ccc31)-c1cc(O)cc(c1)C[C@H](NC(=O)[C@H](C(C)C)N(C)C(=O)[C@H]1CCN(C(=O)C#CCOC)C1)C(=O)N1CCC[C@H](N1)C(=O)OCC(C)(C)C2 (atropisomer, axis not shown) [Example A135]",10 to 100 nM and < 10 nM,< 5000,1000 to 10000 nM and > 10000 nM,1000 to 10000 nM and > 10000 nM,10 to 100,100 to 1000 nM and 1000 to 10000 nM,10 to 100 nM and 100 to 1000 nM,100 to 1000 nM and 1000 to 10000 nM,1000 to 10000 nM and > 10000 nM,10 to 100 nM and < 10 nM
C=CC(=O)N1CC[C@H](C(=O)Nc2ccccc2C(=O)N[C@H]2Cc3cc(O)cc(c3)-c3ccc4c(c3)c(c(-c3cnccc3COC)n4CC)CC(C)(C)COC(=O)[C@@H]3CCCN(N3)C2=O)C1 [Example A229],100 to 1000 nM,–,> 10000 nM,> 10000 nM,> 1000,> 10000 nM,> 10000 nM,> 10000 nM,> 10000 nM,1000 to 10000 nM
C=CC(=O)N1CC[C@H](C(=O)N(C)[C@H](C(=O)N(C)[C@H]2Cc3cc(O)cc(c3)-c3ccc4c(c3)c(c(-c3cccnc3COC)n4CC)CC(C)(C)COC(=O)[C@@H]3CCCN(N3)C2=O)C(C)C)C1 [Example A230],> 10000 nM,–,> 10000 nM,> 10000 nM,> 1000,> 10000 nM,> 10000 nM,> 10000 nM,> 10000 nM,> 10000 nM
C=CC(=O)N1CC[C@H](C(=O)N(C)[C@H](C(=O)N[C@H]2Cc3cc(OC4O[C@H](CO)[C@@H](O)[C@H](O)[C@H]4O)cc(c3)-c3ccc4c(c3)c(c(-c3cccnc3COC)n4CC)CC(C)(C)COC(=O)[C@@H]3CCCN(N3)C2=O)C(C)C)C1 (some centres unmarked) [Example A234],> 10000 nM,–,> 10000 nM,> 10000 nM,> 1000,> 10000 nM,> 10000 nM,> 10000 nM,> 10000 nM,> 10000 nM
